Where two headings read alike, the source gives them in different places.
Experiments:
[1] = tested on: CNS malignancies included in the NCI 60 cell line panel; experiment: NCI 60 cell line screen, CNS malignancies of the panel; format: cell-based, human; conditions: several GBM cell lines
G48a cells = experiment: Cytotoxicity (cell viability) towards G48a GBM cells; format: cell-based, human; conditions: G48a cell line; FIG. 1C
[2] = target: T1, thymidylate synthase (TS) (Homo sapiens, UniProt P04818); experiment: TS catalytic activity assay in lysates of treated GBM cells; format: cell-based; conditions: G48a, U-251 MG and SNB-19 GBM cells; F10 10^−6 and 10^−5 M, raltitrexed 10^−6 M
T1 construct: harvested, and lysed by freeze-fracturing; Following centrifugation of cell lysates, supernatants were assayed for protein content and TS catalytic activity; endogenous in cells; host or cells: G48a, U-251 MG and SNB-19 GBM cells
T1 sequence (P04818 2-313 limits assumed): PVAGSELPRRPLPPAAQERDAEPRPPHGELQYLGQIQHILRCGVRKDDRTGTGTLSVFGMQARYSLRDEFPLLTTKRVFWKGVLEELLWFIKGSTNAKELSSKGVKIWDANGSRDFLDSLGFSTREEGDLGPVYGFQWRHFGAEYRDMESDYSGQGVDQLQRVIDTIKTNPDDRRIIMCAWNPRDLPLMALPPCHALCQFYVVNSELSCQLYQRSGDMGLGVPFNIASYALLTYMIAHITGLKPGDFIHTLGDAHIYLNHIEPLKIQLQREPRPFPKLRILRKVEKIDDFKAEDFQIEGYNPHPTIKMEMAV
Description: TS assays were conducted using procedures similar to those previously described. (Gmeiner et al., Enhanced DNA-directed effects of FdUMP[10] compared to 5FU. Nucleosides Nucleotides Nucleic Acids. 2004; 23(1-2):401-410.) GBM cells were plated at a density of 1.5×10^6 cells in 100 mm^2 plates. Cells were grown overnight in RPMI 1640 medium with 10% FBS. Either 5FU (Sigma), F10, or raltitrexed were then added at the indicated concentrations and the cells were incubated for 8, 16, 24, or 48 hrs, harvested, and lysed by freeze-fracturing. Following centrifugation of cell lysates, supernatants were assayed for protein content and TS catalytic activity as previously described. (Gmeiner et al., Enhanced DNA-directed effects of FdUMP[10] compared to 5FU. Nucleosides Nucleotides Nucleic Acids. 2004; 23(1-2):401-410.)

[3] = target: T2, DNA Topoisomerase 1 (Top1) cleavage complex (Homo sapiens, UniProt P11387); experiment: In vivo complex of enzyme (ICE) bioassay; format: cell-based; conditions: SNB-19 and U-251 MG cells
T2 construct: endogenous in cells; host or cells: SNB-19 and U-251 MG GBM cells
T2 sequence (P11387 2-765 limits assumed): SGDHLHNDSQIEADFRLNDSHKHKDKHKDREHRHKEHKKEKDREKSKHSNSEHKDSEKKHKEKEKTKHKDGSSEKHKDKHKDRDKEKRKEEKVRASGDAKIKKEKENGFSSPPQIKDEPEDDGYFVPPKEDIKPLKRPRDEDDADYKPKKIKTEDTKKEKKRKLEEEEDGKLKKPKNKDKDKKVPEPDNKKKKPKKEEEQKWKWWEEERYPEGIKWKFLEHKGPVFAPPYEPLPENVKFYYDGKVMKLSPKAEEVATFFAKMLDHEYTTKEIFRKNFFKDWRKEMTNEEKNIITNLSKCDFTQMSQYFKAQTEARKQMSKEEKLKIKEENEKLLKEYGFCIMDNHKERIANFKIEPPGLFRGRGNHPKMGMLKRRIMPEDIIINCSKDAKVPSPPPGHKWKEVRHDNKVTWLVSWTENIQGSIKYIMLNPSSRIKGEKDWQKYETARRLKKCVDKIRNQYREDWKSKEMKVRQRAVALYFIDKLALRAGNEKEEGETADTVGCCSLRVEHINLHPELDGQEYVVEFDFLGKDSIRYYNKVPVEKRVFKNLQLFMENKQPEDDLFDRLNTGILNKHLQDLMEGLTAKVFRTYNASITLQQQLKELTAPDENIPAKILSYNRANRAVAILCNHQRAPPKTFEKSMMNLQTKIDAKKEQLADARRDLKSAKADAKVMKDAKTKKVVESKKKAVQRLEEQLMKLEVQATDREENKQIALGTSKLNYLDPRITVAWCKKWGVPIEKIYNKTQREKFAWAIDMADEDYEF
Description: G48a and primary explant cells derived from patient GBM tumors were grown in RPMI 1640 (Lonza, Rockland, Me.) supplemented with 10% FBS and glucose (2 g/L). G48a-luciferase cells were produced by lentiviral infection using a GFP-tagged vector. Cells were selected using blastocydin (10 μg/mL). U-251 MG and SNB-19 cells were obtained from ATCC and grown in RPMI 1640 (Lonza, Rockland, Me.) supplemented with 10% FBS and glucose (2 g/L). U-251 MG cells were grown in DMEM supplemented with 10% FBS and non-essential amino acids. In vivo complex of enzyme (ICE) bioassays were completed using methods similar to those previously described. (Liao et al., A novel polypyrimidine antitumor agent FdUMP[10] induces thymineless death with topoisomerase I-DNA complexes. Cancer Res. 2005; 65(10:4844-4851) GBM cells were incubated with F10 at the indicated concentrations for 0-48 hrs. Thymidine (Thy) rescue was accomplished by adding Thy at 80 μM, as the 20 μM dose previously described (Wang et al., Mechanisms of acquired chemoresistance to 5-fluorouracil and tomudex: thymidylate synthase dependent and independent networks. Cancer Chemother Pharmacol. 2007; 59(6):839-845) was not effective for rescue. Cell samples were counted and equalized for cell number. Primary antibody (mouse anti-human DNA Top I, BD Pharmingen) was added at 1:500 dilution. Secondary antibody (Cell Signaling) was used at 1:1000. […]

[4] = Dose-finding / tolerability upon i.c. administration; format: in vivo, nude mice
From the text: The nanoscale size of F10 (length ˜3 nm), as well as its multiple negative charges, make penetration of the BBB following systemic delivery an inefficient process. Conversely, intra-cranial (i.c.) administration of F10 is expected to result in high local concentrations that may be therapeutically beneficial, particularly in light of the relatively strong cytotoxicity towards GBM cells and the minimal toxicity of F10 towards primary cortical neurons (FIG. 3A). Dose-finding studies in nude mice were performed to identify doses that were sufficiently well-tolerated to be evaluated in efficacy studies. F10 was dissolved in PBS and administered i.e. using an Alzet osmotic mini-pump over a 7 day period. Vehicle-only served as a control. […] These dose levels are considerably lower than those used in recent leukemia studies in which F10 was administered systemically (200 mg/kg qodx4) (Pardee et al., Unique dual targeting of thymidylate synthase and topoisomerase 1 by FdUMP[10] results in high efficacy against AML and low toxicity. Blood. 2012; 119(15):3561-3570), consistent with F10 being retained within the BBB upon i.c. administration.

U138 cells [5] = experiment: Clonogenic survival of U138 cells; format: cell-based, human; conditions: 1 nM FdUMP[10] and/or 10 nM AZD7762, drugs removed after 72 h, colonies counted 10 days post-treatment
Description: 500-2000 U138 cells were seeded into 60 mm dishes and treated with 1 nM FdUMP[10] (F1) and/or 10 nM AZD7726 (A2) and the drugs were removed after 72 h. Cells were fixed and stained with violet blue and colonies were counted using a colony counter 10 days post-treatment. […] The results are consistent with FdUMP[10]AZD7762 being synergistic at decreasing the clonogenicity of U138 cells.

U138 cells [6] = experiment: Flow cytometry of DNA content and cleaved caspase 3 in U138 cells; format: cell-based, human
Description: U138 cells were treated with 1 nM FdUMP[10] and/or 10 nM of AZD7762 for 9 or 1 h, respectively, prior to irradiation with a single dose of 6 Gy. Cells were harvested 24 h post-irradiation and analyzed for DNA content (A) and cleaved caspase 3 (B) by flow cytometry.

U138 cells [7] = experiment: Radiosensitization of U138 cells (clonogenic, 6 Gy); format: cell-based, human; conditions: FdUMP[10] and AZD7762 given before irradiation
Description: FIG. 9. Treating human glioma U138 cells with FdUMP[10] and AZD7726 enhanced their radiosensitivity. 500-2000 U138 cells were seeded into 60 mm dishes and treated with 1 nM FdUMP[10] (F1) for 9 h and 10 nM AZD7726 (A2) for 1 h prior to irradiation with a single dose of 6 Gy. Cells were fixed and stained with violet blue and colonies were counted using a colony counter at 10 days post-treatment. The study indicates combined treatment U138 with FdUMP[10] and AZD7762 sensitize cells to radiation.
Radiation is cytotoxic as a consequence of unrepaired DNA damage. […] In these studies, FdUMP[10] was administered […] prior to irradiation and AZD7762 1 h prior to radiation. Though not wishing to be bound by theory, it is thought that radiosensitization results from induction of a thymineless state following FdUMP[10] treatment and disabling of HRR and abrogation of the G2 checkpoint following AZD7762 treatment. Under these conditions, DNA repair of radiation-induced DNA damage is inhibited due to lack of thymidine while inhibiting Rad51 activation prevents HRR which is important for repair of radiation-induced DNA DSBs (Helleday 2010). Abrogating the G2-checkpoint causes cells to enter mitosis with lethally-damaged DNA enhancing the cytotoxic effects of radiation.

SF-268 = conditions: at or below lowest concentration evaluated; cited from earlier work
[8] = tested on: G48a orthotopic xenografts
Description: G48a-luc were suspended into Hanks Balanced Salt Solution to a density of 10^5 cells/μL. Nude (nu/nu) 7-week old mice were obtained from NCI. Mice were anesthetized using a ketamine/xylazine mixture and placed on a small-animal, head-holding frame. A scalp incision was made to determine the drill-hole location, 1 mm right and 1 mm anterior to lambda. A 27-gauge needle attached to a 10 mL sterile Hamilton syringe (Hamilton, Reno, Nev.) was stereotactically inserted 3 mm below the dural surface and cells were injected into the deep white matter of the posterior thalamus. Cells were injected in a total of 5 μL over a five minute period. The syringe was removed two minutes after the injection was completed, retracting it at a rate of 0.5 mm per minute. After removal of the syringe, the hole was covered with cranio-plastic liquid. Animals were sutured, allowed to recover on a heating pad, and returned to their cages. Animal weight and behavior was monitored every three days.
Starting on day 21 after tumor cell implantation, mice were treated by intra-cerebral (i.c.) infusion (0.5 μL/h) of F10 at 3 concentrations (80, 120 and 160 mg/kg) for a duration of 7 days. Drug was prepared in phosphate buffered saline. Osmotic pumps (ALZET® model 1007D, Alzet, Cupertino, Calif.) were primed in sterile saline overnight at 37° C. according to manufacturer's specification. The pumps were then coupled to brain infusion kits (ALZET® model 3). Animals were anesthetized using a ketamine/xylazine mixture and placed on a small-animal head holding frame, and the location of initial injection (1 mm right and 1 mm anterior to lambda) was retraced. The cannula was then inserted to a depth of 3 mm and secured with cranio-plastic adhesive and the pump was placed subcutaneously between the shoulder blades. Animals were sutured, allowed to recover and evaluated for any motor deficits resulting from the surgical procedure. […] Animals were euthanized 24 hours post-treatment when body weight loss was above 12% or when behavior prevented normal activity.
Animals received an intraperitoneal (i.p.) injection of D-luciferin (150 mg/kg, stock solution 15 mg/mL in sterile PBS, Goldbio, St. Louis, Mo.), After 10 min, animals were anesthetized with isofluorane until non-responsive, and then placed in the imaging chamber. Three bioluminescent imaging acquisitions were collected at different exposure times (10, 60, 300 sec). Mice were allowed to recover and returned to their cages. Data were analyzed based on total photon flux emission (photons) in the region of interest over the intracranial space using Living Image software (Xenogen Corp.).
Animals were deeply anesthetized with an i.p injection of ketamine/xylazine and fixed by transcardial perfusion through the heart with PBS (pH=7.4) followed by 4% paraformaldehyde in PBS (PFA). Brains were removed and fixed overnight in 4% PFA. Brains were then cryoprotected in 30% sucrose-PBS at 4° C. for 2-3 days, Brains were embedded in tissue-freezing medium (Triangle Biomedical Sciences, Durham, N.C.) and sections were cut to a thickness of 10 μm, thawed onto SuperFrost Plus slides (Fisher, Pittsburgh, Pa.) and kept at −20° C. until further processing. Sections from vehicle- and F10-treated animals were thawed prior to exposure with primary antibodies. Endogenous peroxidase activity and non-specific biotin was quenched with Peroxide Blocking Kit and Biotin Blocking Kit, respectively (ScyTek Laboratories, Logan, Utah). Antigen retrieval was performed with 10 mM sodium citrate buffer, pH 6.0, by microwaving for 5 min. Slides were blocked with SuperBlock (ScyTek) and incubated with polyclonal EphA2 antibody (R&D Systems, Minneapolis, Minn.) overnight at 4° C.

SF-295 = conditions: at or below lowest concentration evaluated; cited from earlier work
SF-539 = conditions: at or below lowest concentration evaluated; cited from earlier work
SNB-19 = conditions: cited from earlier work
U-251 MG = conditions: cited from earlier work
[9] = tested on: CNS malignancies included in the NCI 60 cell line panel; conditions: all CNS malignancies included in the NCI 60 cell line panel; cited from earlier work
[10] = tested on: primary astrocyte cultures; experiment: Viability of primary astrocyte cultures; conditions: same doses as for neurons (up to 1 μM)
primary cortical neurons = experiment: Viability of primary cortical neuronal cultures; conditions: 1 μM, 72 hours in culture
Description: Cortical neuronal cultures were prepared using previously described protocols. […] The tissue was further dissected into smaller pieces. After washes in cold PBS without Ca^+2/Mg^+2, tissue was incubated in 0.05% trypsin in PBS without Ca^+2/Mg^+2. Tissue was then dissociated in NB media using a blue-tip pipette. Dissociated cells were layered onto a 4% BSA cushion to remove debris. Cells were plated in NB media at a density 4×10^4 cells/well in a 24 well dish. After 24 hours, media was removed and replaced with fresh media with or without 5FU or F10. After 72 hours in culture, surviving neurons were counted. To be counted a cell had to have a phase-bright cell body and at least one neurite that was at least two times the diameter of the soma. Results are expressed as percent control (Mean±SD) where control represents cultures without the addition of 5FU or F10 (n=4 individual experiments with at least two wells per condition). Statistical significance was determined with a one-way ANOVA followed by the Bonferroni post-hoc test.

[11] = with irradiation 6 Gy, 1 nM FdUMP[10] 9 h and/or 10 nM AZD7762 1 h before, 24 h post-irradiation

Compound: FdUMP[10] [F10]
- differential sensitivity for F10 relative to 5FU [1]: ~10,000 fold
- IC50 (G48a cells): ~1000 nM
- TS inhibition [2]: inhibited TS completely
- Top1CC formation [3]: induces Top1CC formation
- well-tolerated dose ([4]; i.c., osmotic mini-pump over 7 days): up to 200 mg/kg
- appearance and behaviour of mice ([4]; mouse, in vivo): light-sensitive, with eyes partially closed, and were more lethargic than mice treated with vehicle-only
- survival fraction (U138 cells [5]): 0.84
- DNA content / cell cycle (U138 cells [6]; 1 nM FdUMP[10] and/or 10 nM AZD7762): causes G2-arrest
- cleaved caspase 3 (apoptosis) (U138 cells [6]; [11]): result predominantly in apoptotic cells
- radiosensitization (U138 cells [7]): neither FdUMP[10] nor AZD7762 are appreciably radiosensitizing
- GI50 (SF-268): ≤ 5 nM
- EphA2 staining, tumor-bearing side ([8]; 80 mg/kg): only trace levels of EphA2 positive staining
- EphA2 staining, tumor-bearing side ([8]; 120 mg/kg): no EphA2 staining
- mean tumor volumes (%-change in photon emission) ([8]; 120 mg/kg i.c. over 7 days, p<0.01): significantly decreased relative to control
- extent of tumor cell necrosis (H&E) ([8]; 120 mg/kg vs 80 mg/kg): greater tumor cell necrosis than the 80 mg/kg dose
- luminescent signal (IVIS imaging) ([8]; 160 mg/kg i.c. over 7 days): did not display decreased lumincescent signal
- treatment effect by histology ([8]; 160 mg/kg i.c. over 7 days): significant treatment effect
- tumor regression (IVIS imaging) ([8]; 80 and 120 mg/kg i.c. over 7 days): significant tumor regression
- necrosis in tumor tissue (H&E) ([8]; 80 or 120 mg/kg i.c. over 7 days): extensive areas of necrosis selectively within tumor tissue
- necrosis in contralateral side of brain (H&E) ([8]; mouse, in vivo): no observable necrosis
- GI50 (SF-295): ≤ 5 nM
- GI50 (SF-539): ≤ 5 nM
- GI50 (SNB-19): 170 nM
- GI50 (U-251 MG): 115 nM
- GI50 [9]: < 1000 nM

Compound: NC(=O)Nc1cc(-c2cccc(F)c2)sc1C(=O)N[C@H]1CCCNC1 [AZD7762, reference compound]
- survival fraction (U138 cells [5]): 0.80
- cleaved caspase 3 (apoptosis) (U138 cells [6]; [11]): do not result in significant percent of cleaved caspase 3
- cleaved caspase 3 (apoptosis) (U138 cells [6]; without irradiation, 10 nM AZD7762): do not result in significant percent of cleaved caspase 3
- radiosensitization (U138 cells [7]): neither FdUMP[10] nor AZD7762 are appreciably radiosensitizing

Compound: O=c1[nH]cc(F)c(=O)[nH]1 [5FU, 5-fluorouracil]
- viability of primary astrocyte cultures, treated vs control [10]: no apparent differences in viability
- decreased viability for cortical neurons relative to control (primary cortical neurons): approximately 50%

Compound: Cc1nc2ccc(CN(C)c3ccc(C(=O)N[C@@H](CCC(=O)O)C(=O)O)s3)cc2c(=O)[nH]1 [Raltitrexed, reference compound]
- TS inhibition [2]: effectively inhibited TS
